{
  "source": "patent US7820379B2",
  "about": "“Process for high throughput screening of CpG-based immuno-agonist/antagonist” (Coley Pharmaceutical GmbH, priority 2000, dated 2010)",
  "key": {"human TLR9": {"molecular_target": "T1, human TLR9 (Homo sapiens, UniProt Q9NR96, H530R/Q688R)", "T1 construct": "expressed in transfected cells", "T1 sequence (Q9NR96 26-1032 H530R/Q688R)": "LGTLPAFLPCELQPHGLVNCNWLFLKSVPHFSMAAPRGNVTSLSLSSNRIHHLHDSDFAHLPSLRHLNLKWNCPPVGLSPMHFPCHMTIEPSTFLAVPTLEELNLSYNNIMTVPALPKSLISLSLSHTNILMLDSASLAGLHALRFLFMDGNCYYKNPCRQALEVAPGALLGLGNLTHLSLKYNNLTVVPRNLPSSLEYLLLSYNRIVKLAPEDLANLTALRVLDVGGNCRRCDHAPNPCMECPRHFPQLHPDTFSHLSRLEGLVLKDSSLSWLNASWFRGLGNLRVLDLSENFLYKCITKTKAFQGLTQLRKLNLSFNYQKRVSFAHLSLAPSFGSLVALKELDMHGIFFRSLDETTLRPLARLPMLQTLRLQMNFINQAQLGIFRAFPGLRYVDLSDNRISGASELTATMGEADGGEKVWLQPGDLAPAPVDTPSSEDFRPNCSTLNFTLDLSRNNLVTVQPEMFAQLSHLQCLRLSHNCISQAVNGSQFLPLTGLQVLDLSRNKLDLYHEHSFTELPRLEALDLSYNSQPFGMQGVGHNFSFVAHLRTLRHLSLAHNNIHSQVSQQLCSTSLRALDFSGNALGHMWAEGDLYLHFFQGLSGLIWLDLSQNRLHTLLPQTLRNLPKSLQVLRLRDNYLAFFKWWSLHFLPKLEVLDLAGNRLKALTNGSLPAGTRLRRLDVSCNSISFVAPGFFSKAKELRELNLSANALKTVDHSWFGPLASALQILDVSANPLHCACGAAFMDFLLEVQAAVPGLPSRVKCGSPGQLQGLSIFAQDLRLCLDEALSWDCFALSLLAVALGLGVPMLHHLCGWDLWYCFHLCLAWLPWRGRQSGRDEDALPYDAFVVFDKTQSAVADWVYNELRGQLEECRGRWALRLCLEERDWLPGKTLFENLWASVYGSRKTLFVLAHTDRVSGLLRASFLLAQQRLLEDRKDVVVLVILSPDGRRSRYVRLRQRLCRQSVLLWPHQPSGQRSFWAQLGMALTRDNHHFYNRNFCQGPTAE", "experiment": "IL-8 production by ELISA in 293 cells transfected with human TLR9", "format": "cell-based", "conditions": "293 cells transiently transfected with hTLR9 alone; 48 h; ODN 2 μM, LPS 100 ng/ml", "source_text": "Since NF-κB activation is central to the IL-1/TLR signal transduction pathway (Medzhitov R et al., Mol Cell 2:253-258 (1998); Muzio M et al., J Exp Med 187:2097-2101 (1998)), cells were transfected with hTLR9 or co-transfected with hTLR9 and a NF-κB-driven luciferase reporter construct. Human fibroblast 293 cells were transiently transfected with (FIG. 1A) hTLR9 and a six-times NF-κB-luciferase reporter plasmid (NF-κB-luc, kindly provided by Patrick Baeuerle, Munich, Germany) or (FIG. 1B) with hTLR9 alone. After stimulus with CpG-ODN (2006, 2 μM, […], SEQ ID NO:112), GpC-ODN (2006-GC, 2 μM, […], SEQ ID NO:118), LPS (100 ng/ml) or media, NF-κB activation by luciferase readout (8 h, FIG. 1A) or IL-8 production by ELISA (48 h, FIG. 1B) were monitored. Results are representative of three independent experiments. […]\nBecause stable TLR9 transfectants mirrored primary cell responsiveness to CpG-DNA (FIGS. 4 and 5), it was hypothesized that stable transfectants could potentially discern species-specific CpG-motifs through TLR9 receptors. […] Depicted are both NF-κB-driven luciferase and IL-8 production as readout. […] After lysis of the cells luciferase can be detected photometrically based on an enzymatic reaction by luciferase which creates photons. IL-8 production was monitored using enzyme-linked immunosorbent assay (ELISA). […]"}, "[1]": {"system": "plasmacytoid DC (CD123+DC)", "experiment": "Cytokine production by plasmacytoid dendritic cells (ELISA)", "format": "cell-based, human", "conditions": "purified CD123+DC; ODN 2 μM, LPS 100 ng/ml", "procedure": "Human dendritic cells (DC) have been claimed to be responsive to CpG-DNA. […] The converse was true for stimulation of monocyte-derived dendritic cells (MDDC) (FIG. 8 and unpublished data). […] IL-8 and TNF concentration was determined by enzyme-linked immunosorbent assay (ELISA). The CD123+DC response was DNA- and CpG-motif restricted. […] Due to this segregated response we analyzed TLR expression."}, "murine splenocytes": {"system": "murine splenocytes", "experiment": "IL-12 production in murine splenocytes", "format": "cell-based", "conditions": "ODN titration, after 8 hours", "source_text": "By iterative examination of the flanking sequences surrounding CG dinucleotides, CpG-motifs have been identified. Paradoxically, or by twist of nature, the human optimal CpG-motif, GTCGTT (SEQ ID NO:66), is different from the murine motif, GACGTT (SEQ ID NO:129). Human peripheral blood mononuclear cells (PBMC) (FIG. 10A) and murine splenocytes (FIG. 10B) were stimulated with ODN 2006 (filled circle, […], SEQ ID NO:112), ODN 2006-GC (open circle), ODN 1668 (filled triangle, […], SEQ ID NO:84) or ODN 1668-GC (open triangle, […], SEQ ID NO:85) at indicated concentrations and IL-12 production was monitored after 8 hours. […] It should also be noted that the Kac (concentration of half-maximal activation) of murine splenocytes for 1668 was greater than human PBMC for 2006 (compare FIG. 10A to FIG. 10B)."}},
  "data": [
    {"substance": "TCGTCGTTTTGTCGTTTTGTCGTT [ODN 2006]", "values": [
      {"measurement": "IL-8 production by ELISA", "setting": "human TLR9", "result": "responded"},
      {"measurement": "cytokine production by CD123+DC", "setting": "[1]", "result": "produced IFN-α, TNF, GM-CSF, and IL-8"},
      {"measurement": "IL-12 production", "setting": "murine splenocytes", "result": "much less effective"}
    ]},
    {"substance": "lipopolysaccharide [LPS]", "values": [
      {"measurement": "IL-8 production by ELISA", "setting": "human TLR9", "result": "not"},
      {"measurement": "cytokine production by CD123+DC", "setting": "[1]", "result": "not"}
    ]},
    {"substance": "TCCATGACGTTCCTGATGCT (listed as DNA, chemistry not fully specified) [ODN 1668]", "values": [
      {"measurement": "IL-12 production", "setting": "murine splenocytes", "result": "induced optimal IL-12"}
    ]}
  ]
}
